Assay results as given in patent US6979747B2, “Antioxidants, preparation processes and their uses” (Centre National de la Recherche Scientifique (CNRS), priority 1999, dated 2005).

Experiments:
GSH = assay: Intracellular concentration of GSH in spleen macrophages; format: cell-based, human
Protocol: The spleen is dissected and sieved and then the mononuclear cells are isolated using a density gradient, on a Ficoll cushion. The monocytes/macrophages are obtained by adherence to the plastic. The monocytes were allowed to differentiate into macrophages for 7 days, at which time they were infected.
The intracellular GSH was assayed by means of the assay kit sold by Cayman. This method for assaying glutathione is an adaptation of that described by O. W. Griffith et al. (1980).

HIV-1/Ba-L [1] = assay: Combination of I-152 with AZT in MDMs infected with HIV-1/Ba-L (Chou combination index); format: cell-based; conditions: I-152 combined with AZT
Protocol: Viral replication was measured by assaying the reverse transcriptase activity in culture supernatants using the RetroSys kit from Innovagen, following the recommendations of the company.
(§1) The compound I-152 and its derivatives are prepared extemporaneously by being dissolved in dimethyl sulfoxide (DMSO) at the concentration of 100 mM. They are subsequently stored at −20° C. after having been diluted 10 fold in phosphate buffer (PBS).
The pro-GSH compounds of the “I-152 family” are preferably administered as adjuvants therapeutic for current antiretrovirals. The inventors have thus attempted to measure in vitro the effects of I-152 with respect to the anti-HIV effectiveness of these molecules. This study was carried out using macrophages derived from human blood monocytes infected by the HIV-1/Ba-L strain and according to the methodology described by J. and T C. Chou for quantifying the synergistic effects, additive or antagonistic, between two molecules.

HIV-1/Ba-L [2] = assay: Antiviral activity in MDM cultures infected with HIV-1/Ba-L (RT activity in culture supernatants); format: cell-based; conditions: for viral replication (in words): treatment of MDMs 7 days after infection
Protocol: A million monocytes in 1 ml of culture medium A are distributed in each well of a 48 well plate (Becton-Dickinson). The monocytes are left to differentiate into macrophages for 7 days. The macrophages thus differentiated are maintained in culture in medium A.
(§2) The MDMs were infected with the reference isolate with macrophage tropism, HIV-1/Ba-L. The PBMCs and the PBLs were infected with the reference isolate with lymphocyte tropism HIV-1 LAI. The viral stock were formed by amplifying these strains in vitro using umbilical blood mononucleated cells (UBM(s) preactivated with 1 μg/ml of PHA-P and cultured in medium A supplemented by 20 IU/ml of IL-2. In order to remove the soluble factors, such as cytokines, the culture supernatants were ultracentrifuged at 360 000 g for 5 min, and the pellets were resuspended in RPMI 1640. The viral stocks thus formed were subsequently titred using PBMCs activated with PHA-P. The TCID50s (50% Tissue Culture Infectious Dose) were calculated using the Kärber formula.
A million MDMs were infected with 10 000 TCID50s of the HIV-1/Ba-L strain. This amount of virus corresponds to a multiplicity of infection (m.o.i.) equal to 0.01. The excess of virus is removed 24 h after by washing with cells using RPMI 1640. The PBLs and the PBMCs were infected with 10 000 TCID50s of the HIV-1 LAI strain (moi=0.01). The cells were washed at the end of the second day of infection.
The viral replication is measured by assaying the RT activity in the culture supernatants according to the technique described by F. Rey et al. (Biochem. Biophys. Res. Comm., 1984, 121, 126-133). The radioactivity incorporated during the extension of the complementary strand of a poly-rA synthetic matrix in the presence of an oligo-dT12-18 primer and of a radiolabeled substrate, [^3H-methyl]thymidine-5′-triphosphate ([^3H]TPP), makes it possible to assay the enzymatic activity of RT. 400 μl of supernatant are ultracentrifuged at 360 000 g for 5 min. The RT is released by lysis of the viral pellet in 20 μl of NTE-Triton (100 mM NaCl, 10 mM Tris, 1 mM EDTA, 0.1% Triton X-100). These 20 μl are subsequently incubated with 40 μl of the following reaction mixture: 62.5 mM Tris, pH 7.8; 25 mM KCl; 6.25 mM MgCl2; 1.25 mM dithiothreitol (DTT); 2.5×10^−3 ODU oligo-dT12-18 and poly-rA, 5.55×10^−3 TBq {^3H]TTP. After one hour at 37° C., the enzymatic reaction is halted and the newly synthesized strands are precipitated for 20 min at 4° C. by the addition of 1 ml of sodium pyrophosphate (NaPP), of 50 μl of yeast DNA (0.1 mg/ml in 5% trichluoroacetic acid (TCA)), and of 4 ml of 20% TCA. The mixture is filtered using a cellulose acetate membrane (Millipore) which retains the radiolabeled poly-dT chains. The filter is washed using 20 ml of 5% TCA and the residual water is removed by addition of 25 μl of 70% ethanol. The filter is dried in an oven for 10 minutes at 80° C. and is then introduced into vials containing 8 ml of liquid scintillant. The β radioactivity is quantified by means of a scintillation counter (Packard Bell). The results are expressed in pM of [^3H]-TMP incorporated/h/ml of supernatant or, more simply, in cpm/h/ml.
The 50% effective doses (ED50) are calculated from the cumulative RT activities using the software “Dose-effects analysis with microcomputers” developed by J. Chou & T. C. Chou.

HIV-1 LAI = assay: Antiviral activity in quiescent or PHA-P activated PBLs infected with HIV-1 LAI; format: cell-based; conditions: quiescent PBLs or PBLs activated by PHA-P
Protocol: For some experiments, the PBMCs and the PBLs are activated for 48 h with 1 μg/ml of a mitogen, PHA-P (Difco Laboratories). The PBMCs and the PBLs are cultured in medium A (quiescent) or B (activated). The cells are cultured at 37° C. in an atmosphere saturated with moisture under 5% of CO2. The culture supernatants are removed and the culture media are replaced every three or four days. At each renewal of the culture media, the cell viability is evaluated by coloring with trypan blue or by microscopic observation.
as §2
A million MDMs were infected with 10 000 TCID50s of the HIV-1/Ba-L strain. This amount of virus corresponds to a multiplicity of infection (m.o.i.) equal to 0.01. The excess of virus is removed 24 h after by washing with cells using RPMI 1640. […]
The viral replication is measured by assaying the RT activity in the culture supernatants according to the technique described by F. Rey et al. (Biochem. Biophys. Res. Comm., 1984, 121, 126-133). The radioactivity incorporated during the extension of the complementary strand of a poly-rA synthetic matrix in the presence of an oligo-dT12-18 primer and of a radiolabeled substrate, [^3H-methyl]thymidine-5′-triphosphate ([^3H]TPP), makes it possible to assay the enzymatic activity of RT. […] The β radioactivity is quantified by means of a scintillation counter (Packard Bell). […]

TNF-α = assay: Synthesis of TNF-α in MDMs stimulated with LPS and IFN-γ; format: cell-based, human; conditions: MDMs stimulated with LPS (1 μg/ml) and IFN-γ (100 IU/ml)
Protocol: The synthesis of tumor necrosis factor (TNF-α) was […] in the MDM culture supernatants using the calorimetric kit sold by Cayman.
as §1
Tumor necrosis factor (TNF-α), like the oxygen-comprising or nitrogen-comprising radical components, plays a major role in the apoptotic processes associated with infection the HIV. Furthermore, the radical components can promote the synthesis of this proinflammatory cytokine. For this reason, the effects of I-152 in decreasing the synthesis of TNF-α were thus looked for in MDMs stimulated by a bacterial lipopolysaccharide and interferon (IFN-γ).

[3] = ratio of inhibiting concentrations, MDMs, HIV-1/Ba-L

CC(=O)N[C@@H](CS)C(=O)NCCSC(C)=O [I-152, N-(N-acetyl-L-cysteinyl)-S-acetylcysteamine] was tested, and the “concentration from which the GSH increase is saturated” value (GSH) was ≥ 250 µM, the “intracellular level of GSH (in words)” value (GSH) was “increases the intracellular level of GSH” and the “combination index (CI)” value (HIV-1/Ba-L [1]) was “less than 1”. For the same compound, the EC50 (HIV-1/Ba-L [2]; Human immunodeficiency virus 1, BAL, MDMs infected with 10 000 TCID50s HIV-1/Ba-L (m.o.i. 0.01), read-out: inhibiting concentration (50% effective dose)) was 50 µM, the “antiviral activity (in words)” value (HIV-1/Ba-L [2]; MDMs infected with HIV-1/Ba-L, compounds dissolved in medium A) was “strong antiviral activity superior to that of NAC or of MEA” and the “times more effective than MEA” value (HIV-1/Ba-L [2]; [3]) was 6 times. For the same compound, the “times more effective than NAC” value (HIV-1/Ba-L [2]; [3]) was 188 times, the “antiviral activity (in words)” value (HIV-1/Ba-L [2]; second series, compounds dissolved in DMSO then diluted, MDMs, HIV-1/Ba-L) was “the most effective in inhibiting viral replication” and the “viral replication (in words)” value (HIV-1/Ba-L [2]; 250 μM) was “ineffective”. The “viral replication (in words)” value (HIV-1/Ba-L [2]; 500 μM) was “viral replication is extinguished”, the “antiviral activity (in words)” value (HIV-1 LAI) was “inhibits viral replication” and the “cytotoxicity (in words)” value (PBLs) was “not cytotoxic”. The “synthesis of TNF-α (in words)” value (TNF-α) was “inhibits the synthesis of TNF-α”.
